Measurements reported in PMC5823858, “Endogenous insensitivity to the Orco agonist VUAA1 reveals novel olfactory receptor complex properties in the specialist fly Mayetiola destructor” (Scientific Reports, 2018).
Blank lines part the entries; values can stand above or below the compound they belong to.

Legend:
Assay in all cases: Fluo-4AM calcium fluorescence, plate reader
[1] = tested on: T1, MdesOR115 + MdesOrco; type: cell-based, Mayetiola destructor; conditions: agonist of OR; OR and Orco co-expressed
T1 construct: gene OR115; stoichiometry unknown; with Odorant receptor coreceptor

[2] = tested on: T1, MdesOR115 + MdesOrco; type: cell-based, Mayetiola destructor; conditions: agonist of OR; OR and mutant Orco co-expressed
Description: Fluo-4AM calcium fluorescence, plate reader on MdesOR115 + MdesOrco | when co-expressed with either WT MdesOrco or MdesOrco^(H81F, N133L, A350S)

[3] = tested on: T2, MdesOR115 + DmelOrco; type: cell-based, Mayetiola destructor; conditions: agonist of OR; heterospecific Orco co-expressed
T2 construct: gene OR115; heterospecific complex: M. destructor OR115 (V5 tag) with Drosophila melanogaster Orco (c-myc tag), TREx/HEK293; with Odorant receptor coreceptor (Drosophila melanogaster)

[4] = tested on: T3, MdesOR115 + AsegOrco; type: cell-based, Mayetiola destructor; conditions: agonist of OR; heterospecific Orco co-expressed
T3 construct: gene OR115; heterospecific complex: M. destructor OR115 (V5 tag) with Agrotis segetum Orco (c-myc tag), TREx/HEK293; with Odorant receptor coreceptor (Agrotis segetum)

[5] = tested on: T4, AsegOR7 + MdesOrco; type: cell-based, Agrotis segetum; conditions: agonist of OR; heterospecific Orco co-expressed
T4 construct: gene OR7; heterospecific complex: A. segetum OR7 (V5 tag) with Mayetiola destructor Orco (c-myc tag), TREx/HEK293; with Odorant receptor coreceptor (Mayetiola destructor)

[6] = tested on: T4, AsegOR7 + MdesOrco; type: cell-based, Agrotis segetum; conditions: agonist of OR; heterospecific mutant Orco co-expressed
Description: Fluo-4AM calcium fluorescence, plate reader on AsegOR7 + MdesOrco | when co-expressed with either version of MdesOrco

[7] = tested on: T5, AsegOR7 + AsegOrco; type: cell-based, Agrotis segetum; conditions: agonist of OR; OR and Orco co-expressed
T5 construct: gene OR7; stoichiometry unknown; with Odorant receptor coreceptor
Description: Fluo-4AM calcium fluorescence, plate reader on AsegOR7 + AsegOrco | when AsegOR7 was co-expressed with WT AsegOrco the cells responded dose dependently

[8] = tested on: T5, AsegOR7 + AsegOrco; type: cell-based, Agrotis segetum; conditions: agonist of OR; OR and mutant Orco co-expressed
[9] = tested on: T6, AsegOR7 + DmelOrco; type: cell-based, Agrotis segetum; conditions: agonist of OR; heterospecific Orco co-expressed
T6 construct: gene OR7; heterospecific complex: A. segetum OR7 (V5 tag) with Drosophila melanogaster Orco (c-myc tag), TREx/HEK293; with Odorant receptor coreceptor (Drosophila melanogaster)
Description: Fluo-4AM calcium fluorescence, plate reader on AsegOR7 + DmelOrco | they responded well to their respective OR-specific ligand

[10] = molecular target: T7, MdesOrco (Mayetiola destructor, UniProt A0A1D8GZG0, A350S/C230Q/C408S/H81F/I150T/N133L/T205L); type: cell-based
T7 construct: homomeric channel
T7 sequence (A0A1D8GZG0 1-466 H81F/N133L/I150T/T205L/C230Q/A350S/C408S): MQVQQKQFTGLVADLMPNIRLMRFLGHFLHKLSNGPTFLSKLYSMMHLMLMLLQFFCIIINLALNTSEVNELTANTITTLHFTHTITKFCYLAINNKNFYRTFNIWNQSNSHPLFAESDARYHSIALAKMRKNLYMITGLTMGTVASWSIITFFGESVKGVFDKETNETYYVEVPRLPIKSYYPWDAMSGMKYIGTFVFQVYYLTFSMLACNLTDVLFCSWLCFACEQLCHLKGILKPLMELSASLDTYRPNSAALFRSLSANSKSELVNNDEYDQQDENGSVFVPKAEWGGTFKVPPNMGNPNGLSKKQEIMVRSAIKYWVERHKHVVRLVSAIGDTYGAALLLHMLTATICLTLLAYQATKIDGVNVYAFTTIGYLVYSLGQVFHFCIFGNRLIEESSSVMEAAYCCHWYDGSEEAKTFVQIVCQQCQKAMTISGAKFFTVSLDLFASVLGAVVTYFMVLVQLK
Description: Fluo-4AM calcium fluorescence, plate reader on MdesOrco | contained the seven point mutations responded well to VUAA1

[11] = molecular target: T8, MdesOrco (Mayetiola destructor, UniProt A0A1D8GZG0, A350S/H81F/N133L); type: cell-based
T8 construct: homomeric channel
T8 sequence (A0A1D8GZG0 1-466 H81F/N133L/A350S): T7 sequence (A0A1D8GZG0 1-466 H81F/N133L/I150T/T205L/C230Q/A350S/C408S)
Description: Fluo-4AM calcium fluorescence, plate reader on MdesOrco | MdesOrco^(H81F, N133L, A350S) responded similarly to VUAA1 in HEK293 cells

[12] = molecular target: T9, DmelOrco (Drosophila melanogaster, UniProt Q9VNB5); type: cell-based
T9 construct: gene Orco; homomeric channel
T9 sequence (Q9VNB5 1-486): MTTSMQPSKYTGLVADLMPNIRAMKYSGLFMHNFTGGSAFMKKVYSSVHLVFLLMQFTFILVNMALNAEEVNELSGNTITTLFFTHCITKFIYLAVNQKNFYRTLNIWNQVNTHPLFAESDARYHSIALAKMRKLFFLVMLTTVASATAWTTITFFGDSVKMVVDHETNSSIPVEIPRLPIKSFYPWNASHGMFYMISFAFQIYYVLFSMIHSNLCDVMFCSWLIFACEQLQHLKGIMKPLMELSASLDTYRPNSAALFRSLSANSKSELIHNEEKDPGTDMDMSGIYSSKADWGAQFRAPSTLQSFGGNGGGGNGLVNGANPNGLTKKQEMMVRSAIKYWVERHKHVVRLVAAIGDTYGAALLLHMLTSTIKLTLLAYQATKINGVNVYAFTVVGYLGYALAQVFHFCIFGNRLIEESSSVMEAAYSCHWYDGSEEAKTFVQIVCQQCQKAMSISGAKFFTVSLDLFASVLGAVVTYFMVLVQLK
Description: Fluo-4AM calcium fluorescence, plate reader on DmelOrco | WT AsegOrco and DmelOrco responded dose-dependently to VUAA1

[13] = molecular target: T10, AsegOrco (Agrotis segetum, UniProt U5KJY5); type: cell-based
T10 construct: homomeric channel
T10 sequence (U5KJY5 2-473 limits assumed): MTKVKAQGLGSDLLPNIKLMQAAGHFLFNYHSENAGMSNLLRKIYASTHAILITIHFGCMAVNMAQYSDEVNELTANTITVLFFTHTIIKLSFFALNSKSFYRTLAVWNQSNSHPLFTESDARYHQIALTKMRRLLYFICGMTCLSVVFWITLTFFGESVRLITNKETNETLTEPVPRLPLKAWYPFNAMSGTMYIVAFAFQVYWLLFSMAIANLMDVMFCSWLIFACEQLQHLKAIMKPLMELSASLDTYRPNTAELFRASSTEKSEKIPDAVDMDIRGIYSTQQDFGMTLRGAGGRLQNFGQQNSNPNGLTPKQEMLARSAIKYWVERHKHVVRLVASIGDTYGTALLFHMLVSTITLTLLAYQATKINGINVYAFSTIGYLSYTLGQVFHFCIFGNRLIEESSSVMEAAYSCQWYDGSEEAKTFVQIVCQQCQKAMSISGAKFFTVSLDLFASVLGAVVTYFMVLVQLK
Description: Fluo-4AM calcium fluorescence, plate reader on AsegOrco | WT AsegOrco and DmelOrco responded dose-dependently to VUAA1

[14] = molecular target: T11, DmelOR56a + DmelOrco (Drosophila melanogaster, UniProt Q9V8Y7); type: cell-based; conditions: agonist of OR; OR and Orco co-expressed
T11 construct: gene Or56a; stoichiometry unknown; with Odorant receptor coreceptor
T11 sequence (Q9V8Y7 1-419): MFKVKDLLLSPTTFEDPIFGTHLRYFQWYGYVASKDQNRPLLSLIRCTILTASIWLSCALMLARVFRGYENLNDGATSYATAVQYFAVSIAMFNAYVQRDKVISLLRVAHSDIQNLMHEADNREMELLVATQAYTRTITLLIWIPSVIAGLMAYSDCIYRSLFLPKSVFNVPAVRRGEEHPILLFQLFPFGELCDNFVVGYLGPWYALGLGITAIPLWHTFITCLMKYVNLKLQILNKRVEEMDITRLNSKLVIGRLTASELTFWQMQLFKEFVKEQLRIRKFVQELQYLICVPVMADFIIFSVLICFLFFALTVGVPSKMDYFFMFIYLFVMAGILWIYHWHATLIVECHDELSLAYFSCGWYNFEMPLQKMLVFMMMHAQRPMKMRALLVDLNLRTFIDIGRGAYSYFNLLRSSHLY
T11 sequence (Q9VNB5 1-486 partner): T9 sequence (Q9VNB5 1-486)
Description: Fluo-4AM calcium fluorescence, plate reader on DmelOR56a + DmelOrco | when DmelOR56a was co-expressed with WT DmelOrco the cells responded dose-dependently to geosmin

[15] = molecular target: T12, DmelOR56a + MdesOrco (Drosophila melanogaster, UniProt Q9V8Y7); type: cell-based; conditions: agonist of OR; heterospecific Orco co-expressed
T12 construct: gene Or56a; heterospecific complex: D. melanogaster OR56a (V5 tag) with Mayetiola destructor Orco (c-myc tag), TREx/HEK293; with Odorant receptor coreceptor (Mayetiola destructor)
T12 sequence (Q9V8Y7 1-419): T11 sequence (Q9V8Y7 1-419)
T12 sequence (A0A1D8GZG0 1-466 partner): T7 sequence (A0A1D8GZG0 1-466 H81F/N133L/I150T/T205L/C230Q/A350S/C408S)

[16] = molecular target: T13, DmelOR56a + AsegOrco (Drosophila melanogaster, UniProt Q9V8Y7); type: cell-based; conditions: agonist of OR; heterospecific Orco co-expressed
T13 construct: gene Or56a; heterospecific complex: D. melanogaster OR56a (V5 tag) with Agrotis segetum Orco (c-myc tag), TREx/HEK293; with Odorant receptor coreceptor (Agrotis segetum)
T13 sequence (Q9V8Y7 1-419): T11 sequence (Q9V8Y7 1-419)
T13 sequence (U5KJY5 2-473 partner limits assumed): T10 sequence (U5KJY5 2-473 limits assumed)
Description: Fluo-4AM calcium fluorescence, plate reader on DmelOR56a + AsegOrco | they responded well to their respective OR-specific ligand

Compound: CC/C=C/C=C/CCCCC[C@H](C)OC(C)=O [(2S,8E,10E)-8,10-tridecadien-2-yl acetate]
EC50 [1]: 2600 nM | EC50 [2]: 3100 nM | EC50 [3]: 6200 nM | EC50 [4]: 3500 nM

Compound: CCCC/C=C\CCCCOC(C)=O [(Z)-5-decenyl acetate]
EC50 [5]: 2500 nM | EC50 [6]: 2800 nM | EC50 [7]: 2300 nM | EC50 [8]: 2200 nM | EC50 [9]: 1200 nM

Compound: CCc1ccc(NC(=O)CSc2nnc(-c3cccnc3)n2CC)cc1 [VUAA1, N-(4-ethylphenyl)-2-((4-ethyl-5-(3-pyridinyl)-4H-1,2,4-triazol-3-yl)thio)acetamide]
EC50 [10]: 26300 nM | EC50 [11]: 25000 nM | EC50 [12]: 15300 nM | EC50 [13]: 27300 nM

EC50 [14]: 19.1 nM | EC50 [15]: 93.5 nM | EC50 [16]: 37.2 nM
Compound: C[C@H]1CCC[C@@]2(C)CCCC[C@]12O [geosmin]
